Measurements as given in patent US20210380930A1, “METHODS, APPARATUS AND KITS FOR BACTERIAL CELL LYSIS” (TECHNISCHE UNIVERSITÄT WIEN, priority 2018, published 2021).
Where two headings read alike, the source gives them in different places.

System: Enterococcus faecalis type strain NCTC 775
Assay: Cell lysis experiments with ILs, released DNA quantified by ENT-qPCR
Format: cell-based

Row | Compound | 23S rRNA gene copies in 2.5 μl of the DNA extracts | cell lysis efficiency with varying IL concentrations (IL from 90% (w/v) to 10% (w/v), same extraction procedure) | cell lysis efficiency with varying IL concentrations
1 | CC(=O)[O-].CCn1cc[n+](C)c1 [[C2mim]OAc, 1-Ethyl-3-methylimidazollum acetate] | ~6.48±0.02 | almost steadily decreased with its respective concentration | 
2 | CCCCCC(=O)[O-].C[N+](C)(C)CCO [[Cho]Hex, Choline hexanoate] | ~6.49±0.11 |  | slightly improved towards a concentration of 50% (w/v), only decreasing with lower concentrations of 30% (w/v) and 10% (w/v)
